Measurements taken from patent publication US10047102B2, “Pyridyl-triazabicycles” (Hoffmann-La Roche Inc., priority 2014, dated 2018).

Target: T1, BACE1 (Homo sapiens, UniProt P56817)
T1 construct: endogenous in cells; host or cells: HEK293 APP cells
Assay: Cellular Aβ-lowering assay (Abeta 40 AlphaLISA, HEK293 APP cells)
Format: cell-based
Details: Aβ 40 in culture supernatant by AlphaLISA, 18-20 hrs incubation at 37° C., 1% DMSO
Experimental: The compounds were investigated in accordance with the test given hereinafter.
The Abeta 40 AlphaLISA Assay can be used. The HEK293 APP cells were seeded in 96 well Microtiter plates in cell culture medium (Iscove's, plus 10% (v/v) fetal bovine serum, penicillin/streptomycin) to about 80% confluency and the compounds were added at a 3× concentration in ⅓ volume of culture medium (final DMSO concentration was kept at 1% v/v). After 18-20 hrs incubation at 37° C. and 5% CO2 in a humidified incubator, the culture supernatants were harvested for the determination of Aβ 40 concentrations using Perkin-Elmer Human Amyloid beta 1-40 (high specificity) Kit (Cat# AL275C).
In a Perkin-Elmer White Optiplate-384 (Cat# 6007290), 2 ul culture supernatants were combined with 2 μl of a 10× AlphaLISA Anti-hAβAcceptor beads+Biotinylated Antibody Anti-Aβ 1-40 Mix (50 μg/mL/5 nM). After 1 hour room temperature incubation, 16 μl of a 1.25× preparation of Streptavidin (SA) Donor beads (25 μg/mL) were added and incubated for 30 minutes in the Dark. Light Emission at 615 nm was then recorded using EnVision-Alpha Reader. Levels of Aβ 40 in the culture supernatants were calculated as percentage of maximum signal (cells treated with 1% DMSO without inhibitor). The IC50 values were calculated using the Excel XLfit software.

T1 sequence (P56817 46-501): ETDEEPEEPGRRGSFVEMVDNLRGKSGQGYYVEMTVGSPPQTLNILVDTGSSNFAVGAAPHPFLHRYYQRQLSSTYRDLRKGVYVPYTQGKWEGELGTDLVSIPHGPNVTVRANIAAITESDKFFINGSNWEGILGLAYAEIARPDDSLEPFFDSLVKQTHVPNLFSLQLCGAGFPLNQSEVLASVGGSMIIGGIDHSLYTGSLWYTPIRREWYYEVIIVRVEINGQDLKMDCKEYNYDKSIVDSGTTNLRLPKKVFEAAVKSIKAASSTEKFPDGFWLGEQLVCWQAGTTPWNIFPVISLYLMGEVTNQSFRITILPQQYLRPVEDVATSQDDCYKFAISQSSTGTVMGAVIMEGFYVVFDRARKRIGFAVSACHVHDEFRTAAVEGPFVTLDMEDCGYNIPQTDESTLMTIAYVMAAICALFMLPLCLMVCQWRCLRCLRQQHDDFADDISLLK

SMILES	IC50 [nM]
N#Cc1ccc(C(=O)Nc2ccc(F)c([C@]3(C(F)F)C[S@]4(=O)=NCCCCN4C(N)=N3)n2)nc1 [Example 6, N-[6-[(1S,10S)-8-Amino-10-(difluoromethyl)-1-oxo-1λ^6-thia-2,7,9-triazabicyclo[5.4.0]undeca-1,8-dien-10-yl]-5-fluoropyridin-2-yl]-5-cyanopyridine-2-carboxamide]	78
N#Cc1ccc(C(=O)Nc2ccc(F)c([C@]3(C(F)F)C[S@@]4(=O)=NCCCCN4C(N)=N3)n2)nc1 [Example 7, N-[6-[(1R,10S)-8-Amino-10-(difluoromethyl)-1-oxo-1λ^6-thia-2,7,9-triazabicyclo[5.4.0]undeca-1,8-dien-10-yl]-5-fluoropyridin-2-yl]-5-cyanopyridine-2-carboxamide]	147
